Source: US20090123518A1, “Biodegradable implants with controlled bulk density” (priority 2007, published 2009)

Experiment: Osmotic pressure of the drug in water
Type: physicochemical
Conditions: in water at room temperature
Description: As an example of this discovery, the inventors selected leuprolide acetate as a sample compound. The inventors then experimentally determined that the osmotic pressure of leuprolide acetate in water is approximately 5 atmospheres at room temperature.
“Osmotic pressure of the drug” means the pressure that must be applied to a solution to prevent the net flow of solvent molecules (such as water) through a semipermeable membrane from a solution of lower drug concentration to a solution of higher drug concentration. The osmotic pressure of the drug can be experimentally determined with use of a vapor pressure osmometer, such as the Vapro® vapor pressure osmometer.

osmotic pressure: approximately 5 atmospheres
SMILES: CCNC(=O)[C@@H]1CCCN1C(=O)[C@H](CCCNC(=N)N)NC(=O)[C@H](CC(C)C)NC(=O)[C@@H](CC(C)C)NC(=O)[C@H](Cc1ccc(O)cc1)NC(=O)[C@H](CO)NC(=O)[C@H](Cc1c[nH]c2ccccc12)NC(=O)[C@H](Cc1c[nH]cn1)NC(=O)[C@@H]1CCC(=O)N1 [leuprolide acetate]
